Usually melting point stands for the temperature, or range, at which the solid turns liquid. `O=C(CSc1nc2ccccc2[nH]1)c1ccccc1`: the melting point worked out at 167 °C.

For `Cc1ccccc1C(=O)c1ccc(Nc2ccccc2NC(=O)CO)cc1F`, the melting point is 149 to 150 °C. Regarding `Cc1ccc(N(C=C(C#N)C#N)N=C(C#N)C#N)cc1C`, the melting point is 162 to 163 °C. As for `Cc1ccc(CN2CCN(C3=NC4(C=CC(=O)C=C4)C(c4ccc(O)cc4)=C3)CC2)cc1`, the figure is 140 °C; as for `CSc1ncc(C2=NCC(C)(C)O2)cc1Cl`, 113 to 115 °C; as for `NC(=O)c1ccc(-c2cnc3[nH]c(=O)n(CCC4CCOCC4)c3n2)cc1`, 233 to 236 °C. Consider `CCn1ncc2c3onc(-c4ccc(C)cc4)c3cnc21`, for which the melting point was 173 to 175 °C. `COC(=O)C1(O)C(=O)Nc2ccc(C(F)(F)F)cc2CC1c1ccc(OC)cc1` (centres undefined) showed a melting point of 196 to 198 °C. The same measure for `CCCc1nc2c(N)nc3cc(OCC(=O)N4CCOCC4)ccc3c2s1`: 200 to 203 °C; for `CC(C)(C)C(O)(Cn1cncn1)C(=O)C=Cc1ccc(Cl)cc1` (centres undefined): 83 to 85 °C; for `COC(=O)C1=C(C)NC(C)=C(C(=O)O)C1c1ccccc1Cl` (centres undefined): 210 °C. `CCCCCN(CCC12CC3CC(CC(C3)C1)C2)C(=O)NCC(C)Cc1ccncc1` (centres undefined): the melting point fell in the range of 103 to 104 °C. As for `CS(=O)(=O)c1ccc(-c2cc(C(F)F)nn2-c2ccc(F)cc2)cc1F`, the figure is 201 to 202 °C. `CC1CC(=Cc2ccccc2OCC(O)CN2CCC(c3ccc4ccccc4c3)CC2)C(=O)O1` (centres undefined) showed a melting point of 142 to 144 °C. The same measure for `CC(=O)N1N=C(C=Cc2ccc([N+](=O)[O-])cc2)c2cc3c(cc2CC1C)OCO3` (centres undefined): 188 to 190 °C; for `CCCc1nc(CC)c(C=O)n1Cc1ccc(-c2ccccc2-c2c(O)c(=O)c2=O)cc1`: 241 to 245 °C.

Consider `O=C1c2ccc(Nc3ccccc3)nc2CC2CCCCC12` (centres undefined), for which the melting point lay within 214 to 216 °C.

Take `COC(=O)c1nn(C2CCCCO2)cc1NC(=O)c1ccccn1` (centres undefined): the melting point lay within 131 to 132 °C. As for `CCn1nc(OCC(=O)c2ccc(F)cc2)c(-c2ccc(F)cc2)c1-c1ccc(OC)cc1`, the figure is 170 to 171 °C. Consider `COCC(=O)O[C@@H]1[C@@H](c2ccccc2)Nc2c(ccn3c(C)c(C)nc23)[C@@H]1OC`, for which the melting point lay in the range of 73 to 75 °C. As for `COc1cccc(OC)c1C(=O)Nc1nnc(-c2ccccc2Cl)s1`, the figure is 235 to 237 °C; as for `C=CCC1=C(C)C(OC(=O)C2C(C=CC(C)=O)C2(C)C)CC1=C` (centres undefined), less than 50 °C. As for `CC1CCN(c2cc(F)cc(C(=O)Nc3ccc(Oc4ccnc(N5CCOCC5)n4)c4ccccc34)c2)CC1`, the figure is 88 to 89 °C; as for `CCCn1c(=O)c2[nH]c(-c3cc(C)n(CC(=O)Nc4ccc(C)c(C)c4)n3)nc2n(CCC)c1=O`, 261 to 265 °C. Molecule `CCOc1ccc(OCc2ccc(OCc3nc(-c4ccccc4)oc3C)cc2)cc1CCC(=O)O` gave a melting point of 129 to 130 °C. The same measure for `CNC(=O)C(=O)CCCCCCc1csc(-c2ccc(Cl)cc2)n1`: 77 to 81 °C; for `CC(C)c1ccc2oc(C(O)COc3ccc(C(=O)O)cc3)cc2c1` (centres undefined): 148 to 150 °C; for `CC(=O)Nc1nccc(Oc2ccc3c(C(=O)Nc4ccc(F)c(C(F)(F)F)c4)cccc3c2)n1`: 213 to 214 °C.

On to `Cn1nc(-c2ccc(Cl)c(Cl)c2)c2ccccc2c1=O`, for which the melting point was in the range of 179 to 181 °C.

On to `COC(=O)C=C1CN=C(c2ccccc2Cl)c2cc(Cl)ccc2N1`, for which the melting point is 154 to 158 °C.

In the case of `NC(=S)Nc1ccc(C(F)(F)F)cn1`, the melting point fell in the range of 203 to 205 °C. The same measure for `COC(=O)C1COc2c(C(=O)c3ccccc3)cc(C)cc21` (centres undefined): 110 to 111 °C; for `COCCc1nc2c(N)nc3c(c2n1CCCCNS(=O)(=O)c1ccc(F)cc1)CCCC3`: 191 to 193 °C; for `C(=C(c1ccccc1)c1ccccc1)c1ccc2c(c1)Cc1ccccc1-2`: 136 to 138 °C. The same measure for `O=Cc1cc2sccc2c2ccccc12`: 101 to 102 °C; for `Fc1cc(F)c2c(c1)CCC(n1cc[nH]c1=S)C2` (centres undefined): 260 to 261 °C.

As to `COc1ccc(C(O)(CN2CCNC2=O)c2ccccc2)cc1OC` (centres undefined), the melting point stood at 154 °C. The same measure for `N#CC(=Cc1ccc(CBr)cc1)S(=O)(=O)c1ccccc1`: 120 to 122 °C. As for `O=Cc1ccnc2ccc(Cl)cc12`, the figure is 152 to 153 °C; as for `Cc1nc(-c2cccc(CN3C(=O)C4(COc5cc6c(cc54)OCCO6)c4ccccc43)c2)no1` (centres undefined), 90 to 95 °C; as for `O=C(Nc1ccc(C(=O)N2Cc3ccccc3Cc3ccccc32)cc1)c1cc(Cl)cc(Cl)c1`, 257 to 259 °C. The same measure for `COc1cc(C2=CCCCC2)c(Cl)cc1C(=O)N1Cc2ccc(C(=O)N(C)CCCN(C)C)n2Cc2ccccc21`: 116 to 119 °C; for `C[C@@H]1Cc2ccsc2[C@H](c2ccccc2)N1CCNS(=O)(=O)c1ccc(NS(C)(=O)=O)cc1` (relative stereo): 155 to 158 °C; for `COc1cc(C)c2c(c1OC)CCCC2=O`: 58 to 62 °C.

As to `COC(=O)C=CCOc1ccc(F)c(C(N)=O)c1F`, the melting point was in the range of 122 to 123 °C. As for `CC(C)(C)c1nc2cc(CC#N)ccc2s1`, the figure is 50 to 52 °C; as for `CCc1cnc(-c2ccc(OC)cc2)c(-c2ccc(OC)cc2)n1`, 76.5 to 78 °C; as for `Cc1nc(-n2[nH]c(C)c(Cc3ccc(Cl)cc3)c2=O)sc1C(=O)NCc1cccnc1`, 215 to 217 °C.

The molecule `CCc1ccc(S(=O)O)cc1Cl` yielded a melting point of 58 to 60 °C.

For `CC(=O)N1CCc2ccc(S(=O)(=O)C(F)(F)F)cc2C1`, the melting point fell in the range of 199 to 200 °C. As for `C(=C1\CN2CCC1CC2)/N1c2ccccc2Sc2ccccc21`, the figure is 149 to 153 °C; as for `C#CC1(OC(C)=O)C(COC(=O)c2ccc(Cl)cc2)OC(n2ccc(=O)[nH]c2=O)C1OC(C)=O` (centres undefined), 218 to 219 °C. As for `COc1ccccc1N(CC1OCCO1)C(=O)c1ccc(CCl)cc1`, the figure is 126 to 129 °C.

Take `CC1CC2CC(Cc3ccc(O)cc3)CCC2NC1=O` (centres undefined): the melting point was 217 to 223 °C. Turning to `COc1ccc(S(=O)(=O)N(CC(=O)O)Cc2ccccc2N)cc1`, the melting point was 145 to 147 °C.

The molecule `Brc1cccc(-c2cc(-c3cccc(Br)c3)on2)c1` came in with a melting point of 155 to 156 °C. As for `COC(=O)C=C(Nc1ccc2[nH]c(=O)oc2c1)C(=O)OC`, the figure is 172 °C; as for `Cn1nc(-c2ccccc2Cl)nc1-c1ccc(Oc2ccc(C(F)(F)F)cn2)cc1Cl`, 104 to 108 °C; as for `CCCSc1nc2ccc(Br)cc2c(=O)n1CCC`, 65 to 67 °C. The same measure for `COc1ccc(C(=O)Nc2c(Cl)cncc2Cl)c2c3cc([N+](=O)[O-])ccc3n(C)c12`: greater than 250 °C. As for `ClC1(CBr)C=CC=CN1` (centres undefined), the figure is 40 to 43 °C. The molecule `Cc1ccc(CC(CS)C(=O)Nc2cccc(C(=O)O)c2C)cc1` (centres undefined) registered a melting point of 194 to 196 °C. In turn, `CC(C)(C)OC(=O)N1CC2CC(CN(CC(O)COc3ccccc3)C2)C1` (centres undefined) gave a melting point of 86 to 88 °C. As for `Cc1cccc(NS(=O)(=O)c2ccc(N3CCNC3=O)cc2)c1`, the figure is 188 to 190 °C. The same measure for `COc1ccc(O)c(C2(OC)Sc3ccccc3N(C)C2=O)c1` (centres undefined): 135 to 136 °C. As for `O=C1COc2ccc([N+](=O)[O-])cc2N1`, the figure is 221 to 223 °C. `CCCCNC(=O)NS(=O)(=O)c1cccc2c1CCCC2` returned a melting point of 173 to 175 °C.

`N#CCC(=O)NC(C(=O)OC1CCCCC1)c1ccccc1` (centres undefined) displayed a melting point of 114 to 116 °C. As for `O=C(NC(=O)c1cc(F)ccc1Cl)Nc1ccc(OC(F)(F)F)cc1`, the figure is 199 °C; as for `O=C(/C=C/c1cccc(S(=O)(=O)N2CCN(C/C=C/c3ccccc3)CC2)c1)NO`, 178 °C. With `CC(O)COc1cccc([N+](=O)[O-])c1C#N` (centres undefined), the melting point was 121 to 124 °C. `CCOC(=O)Cc1nn(Cc2nc3ccccc3n2C)c(=O)c2ccccc12` returned a melting point of 118 °C. As to `CCOC(=O)C(CC)C(=O)Nc1cc(Cl)cc(Cl)c1` (centres undefined), the melting point fell in the range of 96.5 to 98 °C. As for `CN1CCN(c2ncccc2OC2CCN(c3ccc(C4CCOCC4)cc3)C2=O)CC1` (centres undefined), the figure is 219 to 248 °C; as for `COc1ccc2nc(NC(=O)C(CC3CCCC3)c3ccc(S(=O)(=O)N(C(C)C)C(C)C)cc3)sc2n1` (centres undefined), 83 to 85 °C. As for `CC(C(=O)O)c1ccc2oc3ncccc3c(=O)c2c1` (centres undefined), the figure is 194 to 195 °C; as for `COc1c(C)cnc(CSc2nc3ncc(O)cc3[nH]2)c1C`, 178 to 180 °C; as for `COc1ccc(-c2cc(=S)n(Cc3ccc(Cl)cc3Cl)nc2-c2ccc(OC)cc2)cc1`, 170 °C.

Consider `CC(C)(COc1ccc2ncc(Cl)n2n1)CS(N)(=O)=O`, for which the melting point was 197 to 200 °C. As for `O=C1Nc2cccc(Cl)c2C(=O)N2C=CC[C@@H]12`, the figure is 249 to 251 °C. As for `COc1ccc(C(=O)c2ccccc2NC(=O)CNC(=O)OCc2ccccc2)cc1`, the figure is 97 to 98 °C; as for `C=CCc1c(C)nc(C)nc1NCc1ccc(-c2ccccc2-c2nnn[nH]2)cc1`, 259 to 260 °C. The same measure for `CC(CSc1cc(C(C)(C)C)c(O)c(C(C)(C)C)c1)N(O)C(N)=O` (centres undefined): 65 to 66 °C; for `COC(=O)c1cc(Br)cc(I)c1`: 55 to 57 °C. In the case of `CN1C(=O)C(=O)N(Cc2ccccc2)CC1(CCO)c1ccc(Cl)c(Cl)c1` (centres undefined), the melting point was determined as 198 °C. `CN(C)CCC(c1ccc(C(=O)NN)cc1)c1ncc[nH]1` (centres undefined) yielded a melting point of 168 to 170 °C.

`CCCCCCCCCCCC(=O)c1cn(S(=O)(=O)c2ccc(C)cc2)c2ccccc12` returned a melting point of 79 to 80 °C. The molecule `COc1cc2[nH]c(=O)nc(C)c2c(OC)c1OC` came in with a melting point of 229 to 230 °C. As for `Cc1c(SCC(=O)N2CCOC(CN(C)C)C2)ccnc1CSc1nc2ccccc2[nH]1` (centres undefined), the figure is 160 °C.

The values above are taken from a melting point compilation (Tetko et al.; mined from patent text by program, amines drawn as free bases though some values may be those of a salt).
